Laboratory results as given in ChEMBL document CHEMBL5241075, “Advancement of chimeric hybrid drugs to cure malaria infection: An overview with special emphasis on endoperoxide pharmacophores” (Eur J Med Chem, 2021).
Each block holds one compound with its values, some of them ahead of it.

Legend:
Plasmodium falciparum [1] = experiment: Antiplasmodial activity against Plasmodium falciparum NF54; format: functional, organism-based
Plasmodium falciparum [2] = experiment: Antiplasmodial activity against Plasmodium falciparum DD2; format: functional, organism-based
Plasmodium falciparum [3] = experiment: Antiplasmodial activity against Plasmodium falciparum FcM29; format: functional, organism-based
Plasmodium falciparum [4] = experiment: Antimalarial activity against chloroquine resistant Plasmodium falciparum FcB1; format: functional, organism-based
Plasmodium falciparum [5] = experiment: Antiplasmodial activity against Plasmodium falciparum Nigerian; format: functional, organism-based
Plasmodium falciparum [6] = experiment: Antiplasmodial activity against chloroquine resistant Plasmodium falciparum; format: functional, organism-based
[7] = Stability of compound at pH 2 assessed as half life; format: physicochemical; settings: buffer
Plasmodium falciparum [8] = experiment: Antiplasmodial activity against Plasmodium falciparum 3D7; format: functional, organism-based; settings: for EC50: read-out: EC50
Plasmodium falciparum [9] = experiment: Antiplasmodial activity against Plasmodium falciparum W2; format: functional, organism-based
Plasmodium falciparum [10] = experiment: Antiplasmodial activity against Plasmodium falciparum D6; format: functional, organism-based
Plasmodium falciparum [11] = experiment: Antiplasmodial activity against Plasmodium falciparum D10; format: functional, organism-based
Hemozoin = experiment: Inhibition of Beta-hematin in Plasmodium falciparum
HeLa = experiment: Antiproliferative activity against human HeLa cells assessed as cell growth inhibition; format: functional, cell-based; settings: hela
Plasmodium falciparum [12] = experiment: Antiplasmodial activity against Plasmodium falciparum K1; format: functional, organism-based
Plasmodium falciparum [13] = experiment: Resistance index, ratio of IC50 for antiplasmodial activity against Plasmodium falciparum K1 to IC50 for antiplasmodial activity against Plasmodium falciparum D10; format: functional
[14] = Therapeutic index, ratio of IC50 for antiproliferative activity against human HeLa cells to IC50 for antiplasmodial activity against Plasmodium falciparum K1; format: toxicity, cell-based
Plasmodium falciparum [15] = experiment: Antiplasmodial activity against Plasmodium falciparum TM91C235; format: functional, organism-based

Compound: COc1ccc2nc3cc(Cl)ccc3c(N3CCN(CCO[C@H]4O[C@@H]5O[C@]6(C)CC[C@H]7[C@H](C)CC[C@@H]([C@H]4C)[C@@]57OO6)CC3)c2c1
- IC50 (Plasmodium falciparum [1]): 267 nM
- IC50 (Plasmodium falciparum [2]): 430 nM

Compound: CC(CCC1OOC(C)(C)C(C)(CI)O1)NCCNc1ccnc2cc(Cl)ccc12 (stereo unspecified)
- IC50 (Plasmodium falciparum [3]): 188 nM
- IC50 (Plasmodium falciparum [4]): 188 nM
- IC50 (Plasmodium falciparum [5]): 188 nM

Compound: C[C@@H]1CC[C@H]2[C@@H](C)C(c3ccco3)O[C@@H]3O[C@]4(C)CC[C@@H]1[C@]32OO4 (stereo partly specified)
- IC50 (Plasmodium falciparum [1]): 1.4 nM

Compound: C[C@@H]1CC[C@H]2[C@@H](C)C(O)(C(F)(F)F)O[C@@H]3O[C@]4(C)CC[C@@H]1[C@]32OO4 (stereo partly specified)
- IC50 (Plasmodium falciparum [6]): 9.4 nM
- half-life [7]: 31.7 days

Compound: C[C@@H]1CC[C@H]2[C@@H](C)C(Oc3ccccc3)O[C@@H]3O[C@]4(C)CC[C@@H]1[C@]32OO4 (stereo partly specified)
- IC50 (Plasmodium falciparum [6]): 5.3 nM

Compound: COc1ccc2nc3cc(Cl)ccc3c(NCCCN(C)CCO[C@H]3O[C@@H]4O[C@]5(C)CC[C@H]6[C@H](C)CC[C@@H]([C@H]3C)[C@@]46OO5)c2c1
- IC50 (Plasmodium falciparum [1]): 12.2 nM
- IC50 (Plasmodium falciparum [2]): 38.5 nM

Compound: COc1ccc2nc3cc(Cl)ccc3c(NCCN3CCN(CCO[C@H]4O[C@@H]5O[C@]6(C)CC[C@H]7[C@H](C)CC[C@@H]([C@H]4C)[C@@]57OO6)CC3)c2c1
- IC50 (Plasmodium falciparum [1]): 14.1 nM
- IC50 (Plasmodium falciparum [2]): 50.4 nM

Compound: C1CCC2(C1)OOC1(CCN(c3nc(N4CCOCC4)nc(N4CCOCC4)n3)CC1)OO2
- IC50 (Plasmodium falciparum [8]): 5.52 nM

Compound: CCCC1O[C@@H]2O[C@]3(C)CC[C@H]4[C@H](C)CC[C@@H]([C@H]1C)[C@@]24OO3 (stereo partly specified)
- IC50 (Plasmodium falciparum [9]): 0.16 ng/mL
- IC50 (Plasmodium falciparum [10]): 0.41 ng/mL

Compound: CCOP(=O)(CCCN(O)C(=O)CC[C@H]1O[C@@H]2O[C@]3(C)CC[C@H]4[C@H](C)CC[C@@H]([C@H]1C)C24OO3)OCC
- IC50 (Plasmodium falciparum [4]): 28000 nM

Compound: C[C@@H]1CC[C@H]2[C@@H](C)C(OCc3ccc(C(=O)N(CCNc4ccnc5cc(Cl)ccc45)CC(=O)NC(C)(C)C)cc3)O[C@@H]3O[C@]4(C)CC[C@@H]1[C@]32OO4.O=C(O)CC(O)(CC(=O)O)C(=O)O (stereo partly specified)
- IC50 (Plasmodium falciparum [11]): 24 nM
- IC50 (Hemozoin): 0.4 equiv
- IC50 (HeLa): 356 nM
- IC50 (Plasmodium falciparum [12]): 18 nM
- Ratio IC50 (Plasmodium falciparum [13]): 0.7
- Ratio IC50 [14]: 20

- IC50 (Plasmodium falciparum [1]): 7.3 nM
- IC50 (Plasmodium falciparum [2]): 142 nM
Compound: COc1ccc2nc3cc(Cl)ccc3c(NCCN3CCNCC3)c2c1

Compound: CCOC1(C(F)(F)F)O[C@@H]2O[C@]3(C)CC[C@H]4[C@H](C)CC[C@@H]([C@H]1C)[C@@]24OO3 (stereo partly specified)
- IC50 (Plasmodium falciparum [6]): 3.3 nM
- half-life [7]: 20.8 days

Compound: Clc1cc(NCCCNC2CCC3(CC2)OO[C@@]2(c4ccccc4)CC(c4ccccc4)=C[C@H]2O3)c2ncccc2c1 (mixture of isomers)
- IC50 (Plasmodium falciparum [3]): 41 nM
- IC50 (Plasmodium falciparum [4]): 41 nM
- IC50 (Plasmodium falciparum [5]): 41 nM

Compound: COc1ccc2nc3cc(Cl)ccc3c(NCCNCCO[C@H]3O[C@@H]4O[C@]5(C)CC[C@H]6[C@H](C)CC[C@@H]([C@H]3C)[C@@]46OO5)c2c1
- IC50 (Plasmodium falciparum [1]): 2.6 nM
- IC50 (Plasmodium falciparum [2]): 35.3 nM

Compound: C[C@H]1[C@@H](OC(=O)CCC(=O)Oc2ccc(Nc3ncnc4ccccc34)cc2)O[C@@H]2O[C@]3(C)CC[C@H]4[C@H](C)CC[C@@H]1[C@@]24OO3
- EC50 (Plasmodium falciparum [8]): 3.8 nM

Compound: COC1(C(F)(F)F)O[C@@H]2O[C@]3(C)CC[C@H]4[C@H](C)CC[C@@H]([C@H]1C)[C@@]24OO3 (stereo partly specified)
- IC50 (Plasmodium falciparum [6]): 0.8 nM
- half-life [7]: 27.5 days

Compound: C[C@H]1[C@@H](O)O[C@@H]2C[C@]3(C)CC[C@H]4[C@H](C)CC[C@@H]1[C@@]24OO3
- EC50 (Plasmodium falciparum [8]): 2.4 nM
- IC50 (Plasmodium falciparum [11]; Plasmodium falciparum, D10): 4 nM
- IC50 (Plasmodium falciparum [1]): < 7 nM
- IC50 (Plasmodium falciparum [12]; Plasmodium falciparum, K1): 3 nM
- Ratio IC50 (Plasmodium falciparum [13]): 0.75

Compound: C[C@@H]1CC[C@@H]2[C@]34OO[C@@](C)(CC[C@@H]13)O[C@H]4OC(Nc1ncccn1)[C@@]2(C)Br (stereo partly specified)
- IC50 (Plasmodium falciparum [6]): 0.16 ng/mL

Compound: C[C@@H]1CC[C@@H]2[C@]34OO[C@@](C)(CC[C@@H]13)O[C@H]4OC(Nc1cccc(F)c1)[C@@]2(C)Br (stereo partly specified)
- IC50 (Plasmodium falciparum [6]): 0.16 ng/mL

Compound: C[C@@H]1C[C@@H]2CC3(CC[C@@H]2C2CC[C@@]4(C)C(CC[C@@H]4[C@H](C)CCCNCCNc4ccnc5cc(Cl)ccc45)C21)OOC1(CCCCC1)OO3 (stereo partly specified)
- IC50 (Plasmodium falciparum [9]): 22.9 nM
- IC90 (Plasmodium falciparum [9]): 30.3 nM
- IC50 (Plasmodium falciparum [15]): 30.2 nM
- IC90 (Plasmodium falciparum [15]): 160 nM
- IC50 (Plasmodium falciparum [10]): 33.5 nM
- IC90 (Plasmodium falciparum [10]): 103 nM

Compound: Clc1cc(NCCCCNC2CCC3(CC2)OO[C@@]2(c4ccccc4)CC(c4ccccc4)=C[C@H]2O3)c2ncccc2c1 (stereo partly specified)
- IC50 (Plasmodium falciparum [3]): 41 nM
- IC50 (Plasmodium falciparum [4]): 41 nM
- IC50 (Plasmodium falciparum [5]): 41 nM
